In this assay the target is hSTING (Homo sapiens (Human), UniProt Q86WV6, G230A/R293Q/R71H). The assay can be described thus: STING reporter assay (luciferase) in THP1-Dual KO-IFNAR2 cells stimulated with 2'3'cGAMP. The following applies: 15 μM 2'3'cGAMP, 24 h. It counts as cell-based. Here is the method:
STING pathway activation by the compounds described herein was measured using THP1-Dual™ cells (KO-IFNAR2).
THP1-Dual™ KO-IFNAR2 Cells (obtained from invivogen) were maintained in RPMI, 10% FCS, 5 ml P/S, 2 mM L-glut, 10 mM Hepes, and 1 mM sodium pyruvate. Compounds were spotted in empty 384 well tissue culture plates (Greiner 781182) by Echo for a final concentration of 0.0017-100 μM. Cells were plated into the TC plates at 40 μL per well, 2×10E6 cells/mL. For activation with STING ligand, 2′3′cGAMP (MW 718.38, obtained from Invivogen), was prepared in Optimem media.
The following solutions were prepared for each 1×384 plate: • Solution A: 2 mL Optimem with one of the following stimuli: • 60 μL of 10 mM 2′3′cGAMP→150 μM stock • Solution B: 2 mL Optimem with 60 μL Lipofectamine 2000→Incubate 5 min at RT
2 mL of solution A and 2 ml Solution B was mixed and incubated for 20 min at room temperature (RT). 20 μL of transfection solution (A+B) was added on top of the plated cells, with a final 2′3′cGAMP concentration of 15 μM. The plates were then centrifuged immediately at 340 g for 1 minute, after which they were incubated at 37° C., 5% CO2, >98% humidity for 24 h. Luciferase reporter activity was then measured. EC50 values were calculated by using standard methods known in the art.
Luciferase reporter assay: 10 μL of supernatant from the assay was transferred to white 384-plate with flat bottom and squared wells. One pouch of QUANTI-Luc™ Plus was dissolved in 25 mL of water. 100 μL of QLC Stabilizer per 25 mL of QUANTI-Luc™ Plus solution was added. 50 μL of QUANTI-Luc™ Plus/QLC solution per well was then added. Luminescence was measured on a Platereader (e.g., Spectramax I3X (Molecular Devices GF3637001)).
Luciferase reporter activity was then measured. EC50 values were calculated by using standard methods known in the art.
(In general: In a reporter assay the amount or activity of a reporter protein is the signal.)

A word on the EC50: it is the concentration that produces a half-maximal response. Low values mean a more potent agent, high ones a less potent agent.

hSTING, sequence (Q86WV6 whole entry R71H/G230A/R293Q): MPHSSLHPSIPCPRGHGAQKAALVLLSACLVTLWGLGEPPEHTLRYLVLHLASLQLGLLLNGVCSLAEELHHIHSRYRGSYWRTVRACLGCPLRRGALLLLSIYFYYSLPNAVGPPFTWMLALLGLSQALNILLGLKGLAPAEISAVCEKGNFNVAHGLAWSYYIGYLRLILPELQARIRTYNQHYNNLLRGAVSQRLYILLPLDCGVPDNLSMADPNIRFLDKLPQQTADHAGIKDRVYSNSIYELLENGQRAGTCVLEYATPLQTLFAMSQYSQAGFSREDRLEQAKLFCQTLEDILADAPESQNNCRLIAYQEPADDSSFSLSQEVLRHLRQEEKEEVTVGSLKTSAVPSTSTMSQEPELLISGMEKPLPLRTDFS

In turn, `CCc1ccc(-n2cc(-c3ccc4[nH]cc(NC(=O)C(=O)N5CCC5)c4c3)cn2)cc1` [Compound 107, 2-(azetidin-1-yl)-N-{5-[1-(4-ethylphenyl)-1H-pyrazol-4-yl]-1H-indol-3-yl}-2-oxoacetamide] came in with an EC50 of 200 to 1000 nM.
The result for `CCc1ccc(-n2cc(-c3ccc4[nH]cc(NC(=O)C(=O)NCCOC)c4c3)cn2)cc1` [Compound 120, N′-{5-[1-(4-ethylphenyl)-1H-pyrazol-4-yl]-1H-indol-3-yl}-N-(2-methoxyethyl)ethanediamide] reads 200 to 1000 nM; that for `CCc1ccc(-n2cc(-c3ccc4[nH]cc(NC(=O)C(=O)NCC(F)(F)F)c4c3)cn2)cc1` [Compound 114, N1-(5-(1-(4-ethylphenyl)-1H-pyrazol-4-yl)-1H-indol-3-yl)-N^2-(2,2,2-trifluoroethyl)oxalamide], 200 to 1000 nM.
Regarding `CCc1ccc(-n2cc(-c3ccc4[nH]cc(NC(=O)C(=O)NC5CCC5)c4c3)cn2)cc1` [Compound 113, N-cyclobutyl-N′-{5-[1-(4-ethylphenyl)-1H-pyrazol-4-yl]-1H-indol-3-yl}ethanediamide], the EC50 lay within 200 to 1000 nM.
The molecule `CCc1ccc(-n2cc(-c3ccc4[nH]cc(NC(=O)C(N)=O)c4c3)cn2)cc1` [Compound 124, N^1-(5-(1-(4-ethylphenyl)-1H-pyrazol-4-yl)-1H-indol-3-yl)oxalamide] had an EC50 of 200 to 1000 nM.
`CO[C@H]1C[C@H](NC(=O)C(=O)Nc2c[nH]c3ccc(-c4cnn(-c5ccc(C(F)(F)F)cc5)c4)cc23)C1` [Compound 101, N-[trans-3-methoxycyclobutyl]-N′-(5-[1-[4-(trifluoromethyl)phenyl]pyrazol-4-yl]-1H-indol-3-yl)ethanediamide]: the EC50 fell in the range of 200 to 1000 nM.
The value for `CCc1ccc(-n2cc(-c3ccc4[nH]cc(NC(=O)C(=O)NCC5CC5)c4c3)cn2)cc1` [Compound 105, N-(cyclopropylmethyl)-N′-{5-[1-(4-ethylphenyl)-1H-pyrazol-4-yl]-1H-indol-3-yl}ethanediamide] was 200 to 1000 nM; that for `CCc1ccc(-n2cc(-c3ccc4[nH]cc(NC(=O)C(=O)N[C@H]5C[C@H](OC)C5)c4c3)cn2)cc1` [Compound 109, N′-{5-[1-(4-ethylphenyl)-1H-pyrazol-4-yl]-1H-indol-3-yl}-N-[(1r,3r)-3-methoxycyclobutyl]ethanediamide] was 200 to 1000 nM; that for `CCc1ccc(-n2cc(-c3ccc4[nH]cc(NC(=O)C(=O)NC(C)C)c4c3)cn2)cc1` [Compound 110, N′-{5-[1-(4-ethylphenyl)-1H-pyrazol-4-yl]-1H-indol-3-yl}-N-(propan-2-yl)ethanediamide] was 200 to 1000 nM.
`CCc1ccc(-n2cc(-c3ccc4[nH]cc(NC(=O)C(=O)NC5CCOC5)c4c3)cn2)cc1` (stereo not drawn) [Compound 108, N-{5-[1-(4-ethylphenyl)-1H-pyrazol-4-yl]-1H-indol-3-yl}-N′-(oxolan-3-yl)ethanediamide] returned an EC50 of 200 to 1000 nM.
Molecule `CNC(=O)C(=O)Nc1c[nH]c2ccc(-c3cnn(-c4ccc(C(F)(F)F)cc4)c3)cc12` [Compound 118, N^1-methyl-N^2-(5-(1-(4-(trifluoromethyl)phenyl)-1H-pyrazol-4-yl)-1H-indol-3-yl)oxalamide] returned an EC50 of 200 to 1000 nM.
Consider `CCc1ccc(-n2cc(-c3ccc4[nH]cc(NC(=O)C(=O)N5CCCC5)c4c3)cn2)cc1` [Compound 115, N-{5-[1-(4-ethylphenyl)-1H-pyrazol-4-yl]-1H-indol-3-yl}-2-oxo-2-(pyrrolidin-1-yl)acetamide], for which the EC50 fell in the range of 200 to 1000 nM.
`O=C(Nc1c[nH]c2ccc(-c3cnn(-c4ccc(C(F)(F)F)cc4)c3)cc12)C(=O)NC1COC1` [Compound 102, N^1-(oxetan-3-yl)-N^2-(5-(1-(4-(trifluoromethyl)phenyl)-1H-pyrazol-4-yl)-1H-indol-3-yl)oxalamide] displayed an EC50 of 200 to 1000 nM.
`CNC(=O)C(=O)Nc1c[nH]c2ccc(-c3cnn(-c4cccc(Cl)c4)c3)cc12` [Compound 119, N^1-(5-(1-(3-chlorophenyl)-1H-pyrazol-4-yl)-1H-indol-3-yl)-N^2-methyloxalamide]: the EC50 lay within 1000 to 5000 nM.
In turn, `CNC(=O)C(=O)Nc1c[nH]c2ccc(-c3cnn(C4CCCC4)c3)cc12` [Compound 122, N^1-(5-(1-cyclopentyl-1H-pyrazol-4-yl)-1H-indol-3-yl)-N^2-methyloxalamide] returned an EC50 of 5000 to 100000 nM.
For `CNC(=O)C(=O)Nc1c[nH]c2ccc(-c3cnn(-c4ccccc4Cl)c3)cc12` [Compound 121, N^1-(5-(1-(2-chlorophenyl)-1H-pyrazol-4-yl)-1H-indol-3-yl)-N^2-methyloxalamide], the EC50 lay within 1000 to 5000 nM.
`CCc1ccc(-n2cc(-c3ccc4[nH]cc(NC(=O)C(=O)NCCC(F)(F)F)c4c3)cn2)cc1` [Compound 103, N′-{5-[1-(4-ethylphenyl)-1H-pyrazol-4-yl]-1H-indol-3-yl}-N-(3,3,3-trifluoropropyl)ethanediamide] returned an EC50 of 200 to 1000 nM.
Molecule `CCc1ccc(-n2cc(-c3ccc4[nH]cc(NC(=O)C(=O)NCC(F)F)c4c3)cn2)cc1` [Compound 116, N-(2,2-difluoroethyl)-N′-{5-[1-(4-ethylphenyl)-1H-pyrazol-4-yl]-1H-indol-3-yl}ethanediamide] returned a concentration giving a half-maximal response (EC50) of 200 to 1000 nM.
Regarding `CCc1ccc(-n2cc(-c3ccc4[nH]cc(NC(=O)C(=O)NC5CCCC5)c4c3)cn2)cc1` [Compound 104, N′-cyclopentyl-N-{5-[1-(4-ethylphenyl)-1H-pyrazol-4-yl]-1H-indol-3-yl}ethanediamide], the EC50 was 200 to 1000 nM.
Turning to `CCc1ccc(-n2cc(-c3ccc4[nH]cc(NC(=O)C(=O)NC)c4c3)cn2)cc1` [Compound 123, N′-[5-[1-(4-ethylphenyl)pyrazol-4-yl]-1H-indol-3-yl]-N-methylethanediamide], the EC50 fell in the range of 200 to 1000 nM.
Take `CCc1ccc(-n2cc(-c3ccc4[nH]cc(NC(=O)C(=O)NCC5CCCC5)c4c3)cn2)cc1` [Compound 106, N′-(cyclopentylmethyl)-N-{5-[1-(4-ethylphenyl)-1H-pyrazol-4-yl]-1H-indol-3-yl}ethanediamide]: the EC50 lay within 200 to 1000 nM.
`CCc1ccc(-n2cc(-c3ccc4[nH]cc(NC(=O)C(=O)N(C)C)c4c3)cn2)cc1` [Compound 112, N′-{5-[1-(4-ethylphenyl)-1H-pyrazol-4-yl]-1H-indol-3-yl}-N,N-dimethylethanediamide] displayed an EC50 of 200 to 1000 nM.
The value for `CNC(=O)C(=O)Nc1c[nH]c2ccc(-c3cccc(C4CC4)c3)cc12` [Compound 117, N^1-(5-(3-cyclopropylphenyl)-1H-indol-3-yl)-N^2-methyloxalamide] was 5000 to 100000 nM; that for `CCc1ccc(-n2cc(-c3ccc4[nH]cc(NC(=O)C(=O)N5CCN(C(C)=O)CC5)c4c3)cn2)cc1` [Compound 111, 2-(4-acetylpiperazin-1-yl)-N-{5-[1-(4-ethylphenyl)-1H-pyrazol-4-yl]-1H-indol-3-yl}-2-oxoacetamide] was 200 to 1000 nM.

The values above are taken from US20240083879A1, “OXALAMIDE COMPOUNDS AND COMPOSITIONS FOR TREATING CONDITIONS ASSOCIATED WITH STING ACTIVITY” (IFM Due, Inc., priority 2021, published 2024).
